US20210163459A1, “PESTICIDALLY ACTIVE AZETIDINE SULFONES AMIDE ISOXAZOLINE DERIVATIVES” (SYNGENTA CROP PROTECTION AG, priority 2018, published 2021)

Legend:
Spodoptera littoralis = Spodoptera littoralis (Egyptian Cotton Leaf Worm) test on sprayed cotton leaf discs; format: in vivo; settings: foliar, 72 h, application rate of 200 ppm, L1 larvae, assessed 3 days after infestation in comparison to untreated samples, read-out: control (mortality, anti-feeding effect, growth inhibition)
Experimental: Spodoptera littoralis (Egyptian Cotton Leaf Worm)
Cotton leaf discs were placed onto agar in 24-well microtiter plates and sprayed with aqueous test solutions prepared from 10′000 ppm DMSO stock solutions. After drying the leaf discs were infested with five L1 larvae. The samples were assessed for mortality, anti-feeding effect, and growth inhibition in comparison to untreated samples 3 days after infestation. Control of Spodoptera littoralis by a test sample is given when at least one of the categories mortality, anti-feedant effect, and growth inhibition is higher than the untreated sample.

Euschistus heros = Euschistus heros (Neotropical Brown Stink Bug) test on sprayed soybean leaves; format: in vivo; settings: 120 h, application rate of 200 ppm, N2 nymphs, assessed 5 days after infestation in comparison to untreated samples, read-out: effect in at least one of the two categories (mortality or growth inhibition)
Experimental: Euschistus heros(Neotropical Brown Stink Bug)
Soybean leaves on agar in 24-well microtiter plates were sprayed with aqueous test solutions prepared from 10′000 ppm DMSO stock solutions. After drying the leaves were infested with N2 nymphs. The samples were assessed for mortality and growth inhibition in comparison to untreated samples 5 days after infestation.
The following compounds gave an effect of at least 80% in at least one of the two categories (mortality or growth inhibition) at an application rate of 200 ppm: A1, A2

Work on `COC(=O)OCN(C(=O)c1ccc(C2=NO[C@@](c3cc(Cl)c(F)c(Cl)c3)(C(F)(F)F)C2)cc1C)C1CN(S(=O)(=O)C(F)F)C1` [Compound A2, [[4-[(5S)-5-(3,5-dichloro-4-fluoro-phenyl)-5-(trifluoromethyl)-4H-isoxazol-3-yl]-2-methyl-benzoyl]-[1-(difluoromethylsulfonyl)azetidin-3-yl]amino]methyl methyl carbonate] yielded a mortality at 200 ppm (Spodoptera littoralis) of at least 80% and a percent effect (mortality or growth inhibition) at 200 ppm (Euschistus heros) of at least 80%.
